Experimental data taken from patent publication US20050107400A1, “Use of pyrazolopyridines as therapeutic compounds” (priority 2001, published 2005).

Test system: HSV-1
Assay: HSV-1 replication in infected Vero 76 cells, DNA hybridization capture assay
Format: cell-based, herpes simplex virus 1
Conditions: Human alphaherpesvirus 1; HSV-1 in Vero 76 cells, MOI=0.001, 40-48 hours at 37° C.; read-out: IC50
Protocol: a) Tissue Culture and HSV Infection.
Vero 76 cells were maintained in MEM with Earle's salts, L-glutamine, 8% FBS (Hyclone, A-1111-L) and 100 units/mL Penicillin-100 μg/mL Streptomycin. For assay conditions, FBS was reduced to 2%. Cells are seeded into 96-well tissue culture plates at a density of 5×10^4 cells/well after being incubated for 45 min at 37° C. in the presence of HSV-1 or HSV-2 (MOI=0.001). Test compounds are added to the wells and the plates are incubated at 37° C. for 40-48 hours. Cell lysates are prepared as follows: media was removed and replaced with 150 μL/well 0.2 N NaOH with 1% Igepal CA 630 or NP-40. Plates were incubated up to 14 days at room temperature in a humidified chamber to prevent evaporation.
(b) Preparation of Detection DNA.
For the detection probe, a gel-purified, digoxigenin-labeled, […] PCR fragment of the HSV UL-15 sequence was utilized. PCR conditions included 0.5 μM primers, 180 μM dTTP, 20 μM dUTP-digoxigenin (Boehringer Mannheim 1558706), 200 μM each of dATP, dCTP, and dGTP, 1×PCR Buffer II (Perkin Elmer), 2.5 mM MgCl2, 0.025 units/μL of AmpliTaq Gold polymerase (Perkin Elmer), and 5 ng of gel-purified HSV DNA per 100 μL Extension conditions were 10 min at 95° C., followed by 30 cycles of 95° C. for 1 min, 55° C. for 30 sec, and 72° C. for 2 min. The amplification was completed with a 10-min incubation at 72° C. Primers were selected to amplify a 728 bp probe spanning a section of the HSV1 UL15 open reading frame (nucleotides 249-977). Single-stranded transcripts were purified with Promega M13 Wizard kits. The final product was mixed 1:1 with a mixture of 6 M GuSCN, 100 mM EDTA and 200 μg/mL herring sperm DNA and stored at 4° C.
(c) Preparation of Capture Plates.
The capture DNA plasmid (HSV UL13 region in pUC) was linearized by cutting with Xba I, denatured for 15 min at 95° C. and diluted immediately into Reacti-Bind DNA Coating Solution (Pierce, 17250, diluted 1:1 with TE buffer, pH 8) at 1 ng/μL. 75 μL/well were added to Corning (#3922 or 9690) white 96-well plates and incubated at room temperature for at least 4 hrs before washing twice with 300 μL/well 0.2×SSC/0.05% Tween-20 (SSC/T buffer). The plates were then incubated overnight at room temperature with 150 μL/well 0.2 N NaOH, 1% IGEPAL and 10 μg/mL herring sperm DNA.
Twenty-seven (27) μL of cell lysate was combined with 45 μL of hybridization solution (final concentration: 3M GuSCN, 50 mM EDTA, 100 μg/ml salmon sperm DNA, 5×Denhardt's solution, 0.25×APE, and 5 ng of the digoxigenin-labeled detection probe). APE is 1.5 M NH4-acetate, 0.15 M NH4H2 phosphate, and 5 mM EDTA adjusted to pH 6.0. Mineral oil (50 μL) was added to prevent evaporation. The hybridization plates were incubated at 95° C. for 10 minutes to denature the DNA, then incubated at 42° C. overnight. The wells were washed 6× with 300 μL/well SSC/T buffer then incubated with 75 μL/well anti-digoxigenin-HRP-conjugated antibody (Boehringer Mannheim 1207733, 1:5000 in TE) for 30 min at room temperature. The wells were washed 6× with 300 μL/well with PBS/0.05% Tween-20 before 75 μL/well SuperSignal LBA substrate (Pierce) was added. The plates were incubated at room temperature for 30 minutes and chemiluminescence was measured in a Wallac Victor reader.
The following results were obtained for HSV-1.

Compound | IC50
Fc1ccc(-c2nn3ccccc3c2-c2ccnc(NCCc3cnc[nH]3)c2)cc1 [Example 1, 4-[2-(4-Fluorophenyl)pyrazolo[1,5-a]pyridin-3-yl]-N-[2-(1H-imidazol-5-yl)ethyl]-2-pyridinamine] | 0.7 µM
CCCCCCNc1cc(-c2c(-c3ccc(F)cc3)nn3ccccc23)ccn1 [Example 5, 4-[2-(4-Fluorophenyl)pyrazolo[1,5-a]pyridin-3-yl]-N-hexyl-2-pyridinamine] | 5 µM
COc1ccc(CNc2cc(-c3c(-c4ccc(F)cc4)nn4ccccc34)ccn2)cc1 [Example 6, 4-[2-(4-Fluorophenyl)pyrazolo[1,5-a]pyridin-3-yl]-N-(4-methoxybenzyl)-2-pyridinamine] | 4.2 µM
Fc1ccc(-c2nn3ccccc3c2-c2ccnc(NCc3cccnc3)c2)cc1 [Example 7, 4-[2-(4-Fluorophenyl)pyrazolo[1,5-a]pyridin-3-yl]-N-(3-pyridinylmethyl)-2-pyridinamine] | 6.2 µM
CCCNc1cc(-c2c(-c3ccc(F)cc3)nn3ccccc23)ccn1 [Example 8, 4-[2-(4-Fluorophenyl)pyrazolo[1,5-a]pyridin-3-yl]-N-propyl-2-pyridinamine] | 2.8 µM
Fc1ccc(-c2nn3ccccc3c2-c2cc(F)nc(NCc3ccccc3)c2)cc1 [Example 12, N-Benzyl-6-fluoro-4-[2-(4-fluorophenyl)pyrazolo[1,5-a]pyridin-3-yl]-2-pyridinamine] | 3.9 µM
CCCCNc1nccc(-c2c(-c3ccc(F)cc3)nn3ccccc23)n1 [Example 16, N-Butyl-4-[2-(4-fluorophenyl)pyrazolo[1,5-a]pyridin-3-yl]-2-pyrimidin-amine] | > 20 µM
CC(C)Nc1nccc(-c2c(-c3ccc(F)cc3)nn3ccccc23)n1 [Example 17, 4-[2-(4-Fluorophenyl)pyrazolo[1,5-a]pyridin-3-yl]-N-(2-propyl)-2-pyrimidinamine] | 1.5 µM
Nc1nccc(-c2c(-c3ccc(F)cc3)nn3ccccc23)n1 [Example 18, 4-[2-(4-Fluorophenyl)pyrazolo[1,5-a]pyridin-3-yl]-2-pyrimidinamine] | 5.4 µM
Fc1ccc(-c2nn3cc(C(F)(F)F)ccc3c2-c2ccnc(NCc3ccccc3)n2)cc1 [Example 20, N-Benzyl-4-[2-(4-fluorophenyl)-6-trifluoromethylpyrazolo[1,5-a]pyridin-3-yl]-2-pyrimidinamine] | 16 µM
Fc1ccc(-c2nn3cc(C(F)(F)F)ccc3c2-c2ccnc(NC3CC3)n2)cc1 [Example 21, N-Cyclopropyl-4-[2-(4-fluorophenyl)-6-trifluoromethylpyrazolo[1,5-a]pyridin-3-yl]-2-pyrimidinamine] | 0.8 µM
Fc1ccc(-c2nn3cc(C(F)(F)F)ccc3c2-c2ccnc(NCC(F)(F)F)n2)cc1 [Example 22, 4-[2-(4-Fluorophenyl)-6-trifluoromethylpyrazolo[1,5-a]pyridin-3-yl]-N-(2,2,2-trifluoroethyl)-2-pyrimidinamine] | 4.3 µM
N#Cc1ccc2c(-c3ccnc(NC4CC4)n3)c(-c3ccc(F)cc3)nn2c1 [Example 24, N-Cyclopropyl-4-[6-cyano-2-(4-fluorophenyl)pyrazolo[1,5-a]pyridin-3-yl]-2-pyrimidinamine] | 0.2 µM
NC(=O)c1ccc2c(-c3ccnc(NCCCO)n3)c(-c3ccc(F)cc3)nn2c1 [Example 25, 2-(4-Fluorophenyl)-3-(4-(2-(3-hydroxypropyl)amino)pyrimidinyl)-6-pyrazolo-[1,5-a]pyridinylcarboxamide] | 5.5 µM
Fc1ccc(-c2nn3ccccc3c2-c2ccnc(NCc3ccncc3)n2)cc1 [Example 29, 4-[2-(4-Fluorophenyl)pyrazolo[1,5-a]pyridin-3-yl]-N-(4-pyridinylmethyl)-2-pyrimidinamine] | 10 µM
CCCCCNc1cc(-c2c(-c3ccc(F)cc3)nn3ccccc23)ccn1 [Example 30, 4-[2-(4-Fluorophenyl)pyrazolo[1,5-a]pyridin-3-yl]-N-pentyl-2-pyridinamine] | 4 µM

Next, values leading:

IC50 | Compound
1.6 µM | CCCCNc1cc(-c2c(-c3ccc(F)cc3)nn3ccccc23)ccn1 [Example 2, N-Butyl-4-[2-(4-fluorophenyl)pyrazolo[1,5-a]pyridin-3-yl]-2-pyridinamine]
1.5 µM | OCCCNc1cc(-c2c(-c3ccc(F)cc3)nn3ccccc23)ccn1 [Example 3, 3-(4-[2-(4-Fluorophenyl)pyrazolo[1,5-a]pyridin-3-yl]-2-pyridinylamino)-1-propanol]
20 µM | NCCCNc1cc(-c2c(-c3ccc(F)cc3)nn3ccccc23)ccn1 [Example 4, N^1-4-[2-(4-Fluorophenyl)pyrazolo[1,5-a]pyridin-3-yl]-2-pyridinyl-1,3-propanediamine]
2.4 µM | OCCNc1cc(-c2c(-c3ccc(F)cc3)nn3ccccc23)ccn1 [Example 9, 2-(4-[2-(4-Fluorophenyl)pyrazolo[1,5-a]pyridin-3-yl]-2-pyridinylamino)-1-ethanol]
4.4 µM | CN(C)c1cc(-c2c(-c3ccc(F)cc3)nn3ccccc23)ccn1 [Example 11, 4-[2-(4-Fluorophenyl)pyrazolo[1,5-a]pyridin-3-yl]-N,N-dimethyl-2-pyridinamine]
1.2 µM | CC(C)Nc1cc(-c2c(-c3ccc(F)cc3)nn3cc(C(F)(F)F)ccc23)ccn1 [Example 13, 4-[2-(4-Fluorophenyl)-6-trifluoromethylpyrazolo[1,5-a]pyridin-3-yl]-N-isopropyl-2-pyridinamine]
2 µM | OCCCNc1cc(-c2c(-c3ccc(F)cc3)nn3cc(C(F)(F)F)ccc23)ccn1 [Example 14, 3-(4-[2-(4-Fluorophenyl)-6-trifluoromethylpyrazolo[1,5-a]-pyridin-3-yl]-2-pyridinylamino)-1-propanol]
4 µM | NCCCNc1cc(-c2c(-c3ccc(F)cc3)nn3cc(Br)ccc23)ccn1 [Example 15, N-(3-Aminopropyl)-4-[6-bromo-2-(4-fluorophenyl)-pyrazolo[1,5-a]pyridin-3-yl]-2-pyridinamine]
> 40 µM | Nc1nccc(-c2c(-c3ccc(F)cc3)nn3cc(C(F)(F)F)ccc23)n1 [Example 19, 4-[2-(4-Fluorophenyl)-6-trifluoromethylpyrazolo[1,5-a]pyridin-3-yl]-2-pyrimidinamine]
1 µM | OCCCNc1nccc(-c2c(-c3ccc(F)cc3)nn3cc(C(F)(F)F)ccc23)n1 [Example 23, 3-(4-[2-(4-Fluorophenyl)-6-trifluoromethylpyrazolo[1,5-a]pyridin-3-yl]-2-pyrimidinylamino)-1-propanol]
0.15 µM | Fc1ccc(-c2nn3ccccc3c2-c2ccnc(NCCc3cnc[nH]3)n2)cc1 [Example 26, 4-[2-(4-Fluorophenyl)pyrazolo[1,5-a]pyridin-3-yl]-N-[2-(1H-imidazol-5-yl)ethyl]-2-pyrimidinamine]
0.5 µM | Fc1ccc(-c2nn3ccccc3c2-c2ccnc(NCc3cccnc3)n2)cc1 [Example 27, 4-[2-(4-Fluorophenyl)pyrazolo[1,5-a]pyridin-3-yl]-N-(3-pyridinylmethyl)-2-pyrimidinamine]
0.73 µM | Fc1ccc(-c2nn3ccccc3c2-c2ccnc(NCc3ccccn3)n2)cc1 [Example 28, 4-[2-(4-Fluorophenyl)pyrazolo[1,5-a]pyridin-3-yl]-N-(2-pyridinylmethyl)-2-pyrimidinamine]
